Assay results published in patent US20250255889A1, “METHODS FOR TREATMENT SELECTION FOR CHRONIC LYMPHOCYTIC LEUKEMIA (CLL)” (The Broad Institute, Inc., priority 2022, published 2025).

System: primary CLL samples (CD19+ and CD5+ cells)
Experiment: High-throughput dynamic BH3 profiling (HT-DBP): drug-induced apoptotic priming (delta priming), cytochrome c release after BH3 peptide
Format: cell-based, human
Details: for drug-induced apoptotic priming: across CLL subtypes, 65 primary CLL samples, 20 hours drug
Experimental: By “delta priming” is meant the difference in priming of a cell for apoptosis measured in the presence of an agent for treating chronic lymphocytic leukemia relative to priming of the cell in the presence of an inert carrier. In embodiments, the inert carrier is DMSO.
Dynamic BH3 Profiling Dynamic BH3 profiling (DBP) is a drug screening assay that measures the relative priming of cells in a biological sample for cell death by apoptosis in the presence of a specific compound and/or a pro-apoptotic peptide. By “Dynamic BH3 profiling” is meant measuring drug-induced changes in mitochondrial apoptotic priming. Mitochondrial apoptotic priming is a measure of how close to the apoptotic threshold a cell is. A highly primed cell has relatively less anti-apoptotic binding site availability and is closer to the apoptotic threshold than a poorly primed cell, which has more anti-apoptotic availability to buffer an apoptotic assault and is further from the apoptotic threshold. BH3 peptides derived from the BH3 domain of pro-apoptotic BH3-only proteins provoke a response from viable mitochondria. Cytochrome c released from the mitochondria after a short incubation with BH3 peptide is used as a surrogate for priming. In general, the more sensitive a mitochondrion is to a BH3 peptide, the more primed it is. A drug treatment that enhances priming will cause mitochondria to undergo MOMP more easily when incubated with a fixed concentration of a promiscuously binding BH3 peptide, such as BIM BH3 peptide, compared to control-treated cells. See, for example, Potter, D. S. & Letai, A. To prime, or not to prime: that is the question. Cold Spring Harb. Symp. Quant. Biol. 81, 131-140 (2016); Montero, J. et al. Drug-induced death signaling strategy rapidly predicts cancer response to chemotherapy. Cell 160, 977-989 (2015); Daniels, V. W. et al. Metabolic perturbations sensitize triple-negative breast cancers to apoptosis induced by BH3 mimetics. Sci.
Dynamic BH3 profiling and peptides for use therein are described, for example, in Certo, et al., “Mitochondria primed by death signals determine cellular addiction to antiapoptotic BCL-2 family members,” Cancer Cell, 9:351-365 (2006); and in Foight, et al. “Designed BH3 Peptides with High Affinity and Specificity for Targeting Mcl-1 in Cells,” ACS Chemical Biology, 9:1962-1968 (2014), the disclosures of which are incorporated herein by reference in their entireties for all purposes. The DBP assay enables one to compare the response of a patient tumor sample to a specific drug relative to other drugs and relative to an inert control (e.g., DMSO).
To address the challenge of selecting a proper treatment for a chronic lymphocytic leukemia, experiments were undertaken to optimize high-throughput dynamic BH3 profiling (HT-DBP) for evaluation of the drug sensitivities of CLL samples (FIGS. 1, 13, 5A, 5B, 6A, 6B, and 7A-7C).

[1] = peptide MS1 2.5 uM, feature loss_13q14.13
[2] = peptide BAD 0.3 uM, feature EC-i
[3] = peptide BAD 0.3 uM, feature IGLV321_R110
[4] = peptide BAD 0.3 uM, feature NOTCH1
[5] = peptide BAD 0.3 uM, feature RPS15
[6] = peptide BAD 0.3 uM, feature loss_6q
[7] = peptide BIM 0.01 uM, feature IGLV321_R110
[8] = peptide BIM 0.01 uM, feature RPS15
[9] = peptide BIM 0.01 uM, feature loss_6q
[10] = peptide MS1 2.5 uM, feature IGLV321_R110
[11] = peptide MS1 2.5 uM, feature NOTCH1
[12] = peptide MS1 2.5 uM, feature RPS15
[13] = peptide MS1 2.5 uM, feature loss_6q
[14] = peptide PUMA 1 uM, feature EC-i
[15] = peptide PUMA 1 uM, feature IGLV321_R110
[16] = peptide PUMA 1 uM, feature NOTCH1
[17] = peptide PUMA 1 uM, feature RPS15
[18] = peptide PUMA 1 uM, feature loss_6q
[19] = peptide BIM 0.01 uM, feature NOTCH1
[20] = peptide MS1 2.5 uM, feature tri_12
[21] = peptide PUMA 1 uM, feature loss_17q23.1
[22] = peptide BAD 0.3 uM, feature loss_17p13.1
[23] = peptide BAD 0.3 uM, feature loss_17q23.1

CCS(=O)(=O)N1CCN(c2ccc(Nc3ncc(C(N)=O)c(NC4CC4)n3)cc2)CC1 [Cerdulatinib]
direction (Feature loss_13q14.13): Sensitive
direction (Feature loss_13q14.3): Sensitive
drug-induced apoptotic priming: high priming
direction (peptide BAD 0.3 uM, feature loss_13q14.13): Sensitive
direction (peptide BAD 0.3 uM, feature loss_13q14.3): Sensitive
direction (peptide BIM 0.01 uM, feature KMT2D): Sensitive
direction (peptide BIM 0.01 uM, feature loss_13q14.13): Sensitive
direction (peptide BIM 0.01 uM, feature loss_13q14.3): Sensitive
direction [1]: Sensitive
direction (peptide PUMA 1 uM, feature loss_13q14.13): Sensitive
direction (peptide PUMA 1 uM, feature loss_13q14.3): Sensitive

C[C@@H](Oc1cc(-c2cnn(C3CCNCC3)c2)cnc1N)c1c(Cl)ccc(F)c1Cl [Crizotinib]
direction [2]: Resistant
direction (peptide BAD 0.3 uM, feature EC-u1): Sensitive
direction [3]: Resistant
direction [4]: Resistant
direction (peptide BAD 0.3 uM, feature RFX7): Sensitive
direction [5]: Resistant
direction (peptide BAD 0.3 uM, feature ZMYM3): Sensitive
direction [6]: Resistant
direction (peptide BAD 0.3 uM, feature loss_11q22.3): Sensitive
direction (peptide BAD 0.3 uM, feature n-CLL): Sensitive
direction (peptide BIM 0.01 uM, feature EC-i): Resistant
direction [7]: Resistant
direction (peptide BIM 0.01 uM, feature NOTCHI): Resistant
direction [8]: Resistant
direction (peptide BIM 0.01 uM, feature SF3B1): Sensitive
direction [9]: Resistant
direction [10]: Resistant
direction [11]: Resistant
direction (peptide MS1 2.5 uM, feature RFX7): Resistant
direction [12]: Resistant
direction (peptide MS1 2.5 uM, feature ZMYM3): Resistant
direction [13]: Resistant
direction (peptide MS1 2.5 uM, feature priortrt_Post): Resistant
direction [14]: Resistant
direction [15]: Resistant
direction [16]: Resistant
direction [17]: Resistant
direction [18]: Resistant

Cc1nc(Nc2ncc(C(=O)Nc3c(C)cccc3Cl)s2)cc(N2CCN(CCO)CC2)n1 [Dasatinib, dasatinib]
direction [3]: Resistant
direction [4]: Resistant
direction [5]: Resistant
direction [6]: Resistant
direction [7]: Resistant
direction [19]: Resistant
direction [8]: Resistant
direction [9]: Resistant
direction (peptide BIM 0.01 uM, feature loss_17q23.1): Sensitive
direction (peptide MS1 2.5 uM, feature EC-i): Resistant
direction [10]: Resistant
direction [11]: Resistant
direction [12]: Resistant
direction [13]: Resistant
direction [20]: Sensitive
direction [15]: Resistant
direction [16]: Resistant
direction [17]: Resistant
direction [18]: Resistant
direction [21]: Sensitive

C[C@H](Nc1ncnc2[nH]cnc12)c1cc2cccc(Cl)c2c(=O)n1-c1ccccc1 [Duvelisib, duvelisib]
drug-induced apoptotic priming: high priming
direction [22]: Sensitive
direction [23]: Sensitive
direction (peptide BIM 0.01 uM, feature EC-m2): Sensitive
direction [19]: Resistant
direction (peptide MS1 2.5 uM, feature loss_17p13.1): Sensitive
direction (peptide MS1 2.5 uM, feature loss_17q23.1): Sensitive
direction (peptide PUMA 1 uM, feature EC-m2): Sensitive
direction (peptide PUMA 1 uM, feature loss_17p13.1): Sensitive
direction [21]: Sensitive

c1cn2cc(-c3ccc4cn[nH]c4c3)nc(Nc3ccc(N4CCOCC4)cc3)c2n1 [Entospletinib]
direction (Feature tri_12): Sensitive
direction [22]: Sensitive
direction [23]: Sensitive
direction (peptide BAD 0.3 uM, feature loss_19p13.11): Sensitive
direction (peptide BIM 0.01 uM, feature tri_12): Sensitive
direction (peptide MS1 2.5 uM, feature loss_19p13.11): Sensitive
direction (peptide PUMA 1 uM, feature loss_19p13.11): Sensitive

CCn1c(-c2nonc2N)nc2c(C#CC(C)(C)O)ncc(OC[C@H]3CCCNC3)c21 [GSK690693]
direction (Feature i-CLL): Sensitive
direction (peptide BAD 0.3 uM, feature EC-o): Sensitive
direction (peptide BAD 0.3 uM, feature POT1): Resistant
direction (peptide BAD 0.3 uM, feature loss_3p13): Resistant
direction (peptide BIM 0.01 uM, feature i-CLL): Sensitive
direction (peptide MS1 2.5 uM, feature EC-m3): Resistant
direction (peptide MS1 2.5 uM, feature EC-o): Sensitive
direction (peptide MS1 2.5 uM, feature i-CLL): Sensitive
direction [1]: Sensitive
direction (peptide PUMA 1 uM, feature BIRC3): Sensitive
direction (peptide PUMA 1 uM, feature ITIH2): Sensitive
direction (peptide PUMA 1 uM, feature i-CLL): Sensitive
direction (peptide PUMA 1 uM, feature loss_9p21.3): Sensitive
direction (peptide PUMA 1 uM, feature loss_17q11.2): Sensitive

Cc1cc(Nc2cc(CN3CCOCC3)c3nc(C)c(Cc4ccc(Cl)cc4F)n3n2)n[nH]1 [Gandotinib]
drug-induced apoptotic priming by expression cluster (EC-ul (U-CLL)): most sensitive
direction (Feature EC-i): Resistant
drug-induced apoptotic priming: high priming
direction [2]: Resistant
direction (peptide BAD 0.3 uM, feature GNB1): Sensitive
direction [14]: Resistant
direction (peptide PUMA 1 uM, feature GNB1): Sensitive

CC[C@H](Nc1ncnc2nc[nH]c12)c1nc2cccc(F)c2c(=O)n1-c1ccccc1 [Idelalisib, idelalisib]
drug-induced apoptotic priming: high priming
direction [20]: Sensitive
direction (peptide PUMA 1 uM, feature DICER1): Resistant
direction (peptide PUMA 1 uM, feature EC-m4): Sensitive
direction (peptide PUMA 1 uM, feature KMT2D): Sensitive
direction (peptide PUMA 1 uM, feature MED1): Resistant
